Experimental data published in publication PMC8167039, “A Comparative Study of Human and Zebrafish Pregnane X Receptor Activities of Pesticides and Steroids Using In Vitro Reporter Gene Assays” (Frontiers in Endocrinology, 2021).
Like-named read-outs stand apart in the source and are kept apart here.

Legend:
hPXR = molecular target: T1, hPXR (Homo sapiens, UniProt O75469); test: HG5LN Gal4-hPXR luciferase reporter gene assay, agonism
T1 sequence (O75469 146-433 limits assumed): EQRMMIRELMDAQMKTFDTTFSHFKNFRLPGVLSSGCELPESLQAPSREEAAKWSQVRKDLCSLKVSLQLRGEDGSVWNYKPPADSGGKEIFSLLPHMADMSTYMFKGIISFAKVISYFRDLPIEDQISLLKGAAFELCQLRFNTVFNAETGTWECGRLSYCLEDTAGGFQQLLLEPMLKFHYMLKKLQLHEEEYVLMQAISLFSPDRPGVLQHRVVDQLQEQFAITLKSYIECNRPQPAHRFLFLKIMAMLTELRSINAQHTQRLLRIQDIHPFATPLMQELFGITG
Method: (§1) The cell lines used in this study are listed in Supplementary Table 3 . The HG5LN, HG5LN Gal4-hPXR and HG5LN Gal4-zfPXR cell lines were previously described ([19]). Briefly, HeLa cells stably transfected with the GAL4RE5-βGlobin-Luc-SVNeo plasmid (HG5LN cell line) ([15]). HG5LN cells were stably transfected with the pSG5-GAL4(DBD)-hPXR(LBD)-puro or pSG5-GAL4(DBD)-zfPXR(LBD)-puro plasmids.
(§2) HG5LN cells were cultured in Dulbecco’s Modified Eagle Medium: Nutrient Mixture F-12 (D-MEM/F-12) containing phenol red and 1 g/L glucose and supplemented with 5% fetal bovine serum, 100 units/mL of penicillin and 100 µg/mL of streptomycin supplemented with 1 mg/mL geneticin in a 5% CO2 humidified atmosphere at 37°C. HG5LN GAL4-hPXR and GAL4-zfPXR were cultured in the same culture medium supplemented with 0.5 µg/mL puromycin.
(§3) The ability of chemicals to modulate the hPXR and zfPXR was investigated in HG5LN, HG5LN-hPXR, HG5LN-zfPXR, and ZFL-zfPXR cell lines after exposure to serial dilutions of the compounds and measurement of luciferase activity. […] Briefly, cells were seeded in 96-well white opaque flat bottom microplates at 0.5 10^5 cells per well in culture medium. […] Cells were then exposed to a concentration range of the compounds by using an automated workstation (Biomek 3000, Beckman Coulter). The final concentration of DMSO in the well never exceeds 0.1% (v/v). After 16h of exposure, medium was removed and 50 µL of test medium containing 0.3 mM D-luciferin were added per well. After 5 min, the production of light was assessed in living cells using microplate reader (MicroBeta, PerkinElmer SAS, Courtabœuf, France).
(§4) In the transactivation assay, each compound was tested at various concentrations in three independent experiments at least. For each experiment, tests were performed in quadruplicates for each concentration, and data are expressed by means values with standard deviations. […] This allowed to determine EC50 and IC50 values of tested chemicals.

zfPXR [1] = molecular target: T2, zfPXR (Danio rerio, UniProt A5WYG8); test: HG5LN Gal4-zfPXR luciferase reporter gene assay, antagonism (coexposure with clotrimazole); assay type: cell-based, zebrafish
Method: as §1, §2, §3, §4

zfPXR [2] = molecular target: T2, zfPXR; test: cell-based; conditions: for zfPXR antagonism Min: ZFL-zfPXR, coexposure with 0.03 µM clotrimazole, % of maximal induced by 1 µM clotrimazole
Method: as §3, §4

zfPXR [3] = molecular target: T2, zfPXR; test: HG5LN Gal4-zfPXR luciferase reporter gene assay, agonism; assay type: cell-based, zebrafish; design: Emax: dose or concentration left out as unconfirmed; conditions: for Emax: HG5LN, read-out: zfPXR agonism Max; for zfPXR agonism Max: HG5LN-zfPXR, % of maximal induced by 1 µM clotrimazole, DMSO 28 ± 1.7
Method: as §1, §2, §3, §4

[4] = HG5LN-hPXR, maximal activity at 10 µM, % of maximal induced by 3 µM SR 12813, DMSO 19 ± 6
[5] = HG5LN, read-out: zfPXR antagonism Min
[6] = read-out: hPXR agonism EC50, HG5LN-hPXR cells, 16h exposure, n.a. = not active
[7] = HG5LN-zfPXR cells, 16h exposure, n.a. = not active, read-out: zfPXR agonism EC50
[8] = compounds marked *, not tested above 3 µM (clotrimazole: 1 µM)

T2 sequence (A5WYG8 entry or part of it): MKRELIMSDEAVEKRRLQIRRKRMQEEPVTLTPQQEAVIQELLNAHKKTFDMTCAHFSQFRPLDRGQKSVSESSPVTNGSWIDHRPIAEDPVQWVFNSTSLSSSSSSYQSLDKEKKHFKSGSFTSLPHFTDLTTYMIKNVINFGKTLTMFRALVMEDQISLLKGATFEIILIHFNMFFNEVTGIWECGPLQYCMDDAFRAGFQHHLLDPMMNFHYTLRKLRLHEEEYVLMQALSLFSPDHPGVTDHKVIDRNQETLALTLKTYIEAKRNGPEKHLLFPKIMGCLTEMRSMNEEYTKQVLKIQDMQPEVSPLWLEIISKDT

SMILES	EC50 (hPXR)	hPXR agonism Max (hPXR; [4])	EC50 (zfPXR [3])	hPXR agonism Max (hPXR)	further results
CC1(C)[C@H](C(=O)O[C@H](C#N)c2cccc(Oc3ccccc3)c2)[C@@H]1C=C(Br)Br [Deltamethrin]	1.8 ± 0.2 µM	92%			IC50 (zfPXR [1]): 1.6 ± 0.2 µM; remaining activity at 10 µM (zfPXR [1]; [5]): 21%; IC50 (zfPXR [2]): 1.6 ± 0.06 µM; zfPXR antagonism Min (zfPXR [2]; minimal activity at 10 µM): 3%
CC#C[C@]1(O)CC[C@H]2[C@@H]3CCC4=CC(=O)CCC4=C3[C@@H](c3ccc(N(C)C)cc3)C[C@@]21C [Mifepristone, reference compound]					IC50 (zfPXR [1]): 0.08 ± 0.003 µM; IC50 (zfPXR [2]): 0.06 ± 0.004 µM; zfPXR antagonism Min (zfPXR [2]; compounds marked *, not tested above 3 µM): 5%
COCC(=O)N(c1c(C)cccc1C)C(C)C(=O)OC (stereo not drawn) [Metalaxyl]	31 ± 2.6 µM	40%	20 ± 3.1 µM		Emax (zfPXR [3]): 42%
CCOP(=O)(NC(C)C)Oc1ccc(SC)c(C)c1 (stereo not drawn) [Fenamiphos]			0.7 ± 0.21 µM	76%	zfPXR agonism Max (zfPXR [3]; maximal activity at 10 µM): 103%
CC(=O)[C@H]1CC[C@H]2[C@@H]3CCC4=CC(=O)CC[C@]4(C)[C@H]3CC[C@]12C [Progesterone, reference compound]	9.1 ± 2.2 µM				remaining activity at 10 µM (zfPXR [1]; HG5LN; read-out: zfPXR antagonism Min): 14%; IC50 (zfPXR [1]; read-out: zfPXR antagonism IC50): 0.64 ± 0.03 µM
C=CCOC(Cn1ccnc1)c1ccc(Cl)cc1Cl (stereo not drawn) [Imazalil]	10 ± 1.4 µM		9.8 ± 2.6 µM		hPXR agonism Max (hPXR; HG5LN-hPXR, compounds marked *, not tested above 3 µM (clotrimazole, SPA70: 1 µM), % of maximal induced by 3 µM SR 12813, DMSO 19 ± 6): 39%
COC(=O)c1cc(Oc2ccc(Cl)cc2Cl)ccc1[N+](=O)[O-] [Bifenox]	4.5 ± 0.7 µM	84%	5.5 ± 0.4 µM		Emax (zfPXR [3]): 80%
ClC1=C(Cl)[C@]2(Cl)[C@@H]3[C@@H](Cl)[C@H]4O[C@H]4[C@@H]3[C@@]1(Cl)C2(Cl)Cl [Heptachlor exo-epoxide]				85%	EC50 (hPXR; [6]): 1.9 ± 0.1 µM; EC50 (zfPXR [3]; [7]): 1.4 ± 0.04 µM; zfPXR agonism Max (zfPXR [3]; [8]): 76%
CC1(C)C(C=C(Cl)Cl)C1C(=O)OC(C#N)c1cccc(Oc2ccccc2)c1 (stereo not drawn) [Cypermethrin]					IC50 (zfPXR [1]): 5 ± 0.3 µM; remaining activity at 10 µM (zfPXR [1]; [5]): 31%
ClC1=C(Cl)C2(Cl)C3C(Cl)C=CC3C1(Cl)C2(Cl)Cl (stereo not drawn) [Heptachlor]		43%	7.4 ± 1.8 µM		Emax (zfPXR [3]): 44%
ClC1=C(Cl)C2(Cl)C3C4CC(C5OC45)C3C1(Cl)C2(Cl)Cl (stereo not drawn) [Endrin]	6.9 ± 1.2 µM		14 ± 1.2 µM	66%	
CCCC1COC(Cn2cncn2)(c2ccc(Cl)cc2Cl)O1 (stereo not drawn) [Propiconazole]	13 ± 1.5 µM	58%	1 ± 0.1 µM		Emax (zfPXR [3]): 33%
CCCOCCN(C(=O)CCl)c1c(CC)cccc1CC [Pretilachlor]	0.18 ± 0.02 µM		0.58 ± 0.07 µM	94%	
OC(c1ccc(Cl)cc1)(c1cncnc1)c1ccccc1Cl (stereo not drawn) [Fenarimol]	13 ± 2.2 µM	56%			IC50 (zfPXR [1]): 24 ± 7.1 µM; remaining activity at 10 µM (zfPXR [1]; [5]): 66%
ClC1=C(Cl)[C@]2(Cl)[C@@H]3[C@@H]4C[C@@H]([C@H]5O[C@@H]45)[C@@H]3[C@@]1(Cl)C2(Cl)Cl [Dieldrin]	9.2 ± 1.4 µM			62%	IC50 (zfPXR [1]): 19 ± 8.8 µM
ClC1=C(Cl)[C@]2(Cl)[C@@H]3[C@@H](Cl)[C@@H]4O[C@@H]4[C@@H]3[C@@]1(Cl)C2(Cl)Cl [Heptachlor endo-epoxide]				69%	EC50 (hPXR; [6]): 3.4 ± 0.7 µM; EC50 (zfPXR [3]; [7]): 2 ± 0.9 µM; zfPXR agonism Max (zfPXR [3]; [8]): 32%
CCc1cccc(CC)c1N(COC)C(=O)CCl [Alachlor]	1.5 ± 0.4 µM	76%	0.67 ± 0.1 µM		Emax (zfPXR [3]): 98%
